The values that follow come from US20080167248A1, “Anti-Aging Effects Of Substance P” (IMMUNEREGEN BIOSCIENCES, INC., priority 2004, published 2008).

Holding throughout (assay type): in vivo
In one assay the test system is radiation-exposed mice. Kind of assay: hair regrowth in radiation-exposed mice given the substance P analog.
For assay [1], the system named is human. Kind of assay: running speed (150M build-ups, timed 200M run). From the text:
After taking the analog, I “felt” much faster in my 150M build-ups than previously.

For assay [2], the system named is human. Kind of assay: visual accommodation (adjustment time between long and near vision).
Assay [3] has as its system human. As to the kind of experiment: short-term memory. Particulars: since beginning to apply the analog; names and telephone numbers. From the text:
I can remember people's names and telephone numbers more readily.

Assay [4] concerns human. As to the kind of experiment: sleep pattern. As to the method:
I have 6 hours sleep on a regular basis. Approximately a week ago, after taking the analog daily for 2 weeks, I was getting 5 hours sleep.

Assay [5] deals with human. As to the kind of experiment: residual muscle pain after a very hard workout. From the text:
I ran five miles with four 150M build-ups and threw a 6 Kg shot-put for the first time. This workout was followed by a session of weightlifting. Before I began treatment with the substance P analog I would take Advil™ at least twice on the day of the work out to prevent muscle pain.

In the next assay the test system is scalp hair of a human. As to the kind of experiment: hair styling gel with the analog applied daily to the scalp, hair colour. Particulars: 0.001 mg/ml in hair styling gel, approximately 2 ml daily to scalp, after a few months; self-observation. The protocol: [Sar9,Met (02)11 ]-substance P was formulated in a hair styling gel at a concentration of 0.001 mg/ml and approximately 2 ml were applied daily to my scalp. […] I estimate my head of hair to be about 40% darker. This observation is consistent with results observed on radiation-exposed mice that had been given the substance P analog.

Regarding [Sar9,Met (02)11 ]-substance P, the “regrowth of hair lost upon radiation exposure” value in the assay on radiation-exposed mice (radiation-exposed mice given the substance P analog) is reported as “regrew hair that was lost upon radiation exposure”. Moreover, the “colour of new hair growth” value in the assay on radiation-exposed mice (radiation-exposed mice, versus non-exposed area) was “darker than in the non-exposed area”. Also, in the assay with human [1] (after taking the analog, versus previously), the “perceived speed in 150M build-ups” value is “much faster”. The “time in a 200M run” value in the assay with human [1] (timed run) was “significantly improved”. Besides, in the assay with human [2] (after 97 days of administration), the “adjustment time between long and near vision after 97 days” value is “little adjustment time”. The “adjustment time between long and near vision” value in the assay with human [2] (during administration) was “shorter and continues to diminish”. Also, the memory problems entry with human [3] is recorded as “less “middle-aged” memory problems”. Further, in the assay on human [4] (about a week later (now)), the “quality of sleep, later” value is “the vivid dreams and less waking up continue”. Further, the “hours of sleep per night, later” value with human [4] (about a week later (now), reverted) is listed as “six”. Besides, the quality of sleep entry in the assay on human [4] (after taking the analog daily for 2 weeks) was “deeper with more vivid dreams and less “waking up.””. This substance registered a hours of sleep in the assay on human [4] (after taking the analog daily for 2 weeks, regular basis 6 hours) of 5 h. In addition, in the assay with human [5] (after a very hard workout, self-observation), the “reduction in residual muscle pain” value is on record as “very large reduction”. The “tightness or soreness in right arm/shoulder from throwing the shot” value in the assay on human [5] (after taking the analog) is listed as “nor did I experience tightness or soreness”. In the assay with human [5] (five mile run, four 150M build-ups, 6 Kg shot-put, weightlifting, after taking the analog), the “muscle pain after the hard workout” value is listed as “no muscle pain”. Further, in the assay on scalp hair of a human, the “head of hair darker (estimate)” value is given as “about 40%” and the “overall color of hair” value is listed as “becoming more like my original brown color”.
